{"source": "patent US20220242963A1", "about": "“B-CELL ACTIVATING CD73 ANTIBODIES” (CORVUS PHARMACEUTICALS, INC., priority 2018, published 2022)", "system": "B cells (CD19+CD3−)", "experiment": "B cell activation in healthy donor PBMC, flow cytometry of surface markers / phospho ERK", "type": "cell-based, human", "settings": "human B lymphocytes", "excerpt": "With reference to FIGS. 2A-2E, each group of four bars from left to right represent data for: untreated donors, donors treated with human IgG1 isotype control, donors treated with BCR stimulation, and donors treated with CPI-006. The experiments for FIGS. 2A-2E are based on healthy donor PBMC treated overnight with flow cytometry analysis of surface markers on B cells (CD19^POS CD3^NEG). These lymphocyte markers are consistent with activation of B cells as well as other antigen presenting cell populations. […] The bar graph legend from top to bottom is representative of the data bars from left to right. […] For FIG. 2H the bar graph legend from top to bottom is representative of the data bars from left to right. For FIG. 2I the legend from top to bottom is representative of the data from top to bottom. […] For each group of four bars, the legend from top to bottom are representative of the bars from left to right.\nPBMC were isolated from healthy donors and incubated with bead-bound anti-IgM, CPI-006 (10 μg/mL), or human IgG1 isotype control (10 μg/mL) overnight. Flow cytometry analysis was performed with gating on B cells (CD19+CD3−) and mean fluorescence intensity (MFI) was reported for staining with antibodies to the cell surface markers CD69, CD83, and CD25, as shown in FIGS. 2A-2C. PBMC were isolated from healthy donors and incubated with CPI-006, CPI-016, human IgG1 isotype control, and anti-human CD73 antibody, clone AD2 (available from Bio-Rad Antibodies) over a range of concentrations from about 0.1 μg/mL to more than 10 μg/mL. Flow cytometry analysis was performed with gating on B cells (CD19+CD3−) and mean fluorescence intensity (MFI) is reported for antibody staining of CD69, as shown in FIG. 2F. PBMC were isolated from healthy donors and incubated overnight with bead-bound anti-IgM or CPI-006 (1 μg/mL)+/−BTK inhibitor, ibrutinib (100 nM). Flow cytometry analysis was performed with gating on B cells (CD19+CD3−) and mean fluorescence intensity (MFI) is reported for antibody staining of CD69 and CD83, as shown in FIG. 2G. PBMC were isolated from healthy donors and incubated overnight with APCP (1 μM) or CPI-006 (1 μg/mL)+/−NECA (5′-N-ethylcarboxamidoadenosine). Flow cytometry analysis was performed with gating on B cells (CD19+CD3−) and mean fluorescence intensity (MFI) is reported for antibody staining of CD69, as shown in FIGS. 2H-2I. PBMC were isolated from healthy donors and incubated with the indicated treatments for 15 minutes. Flow cytometry analysis was performed with gating on the indicated cell populations and staining of phospho ERK was evaluated, as shown in FIG. 2J."}
{"substance": "MEDI9447: anti-CD73 antibody described by Hay CM et al., Oncoimmunology 2016 [reference compound]", "values": [{"measurement": "direct B cell activation", "result": "do not show this effect"}]}
